From US20240174690A1, “ANNULATED 2-AMINO-3-CYANO THIOPHENES AND DERIVATIVES FOR THE TREATMENT OF CANCER” (BOEHRINGER INGELHEIM INTERNATIONAL GMBH, priority 2021, published 2024)
Converted amounts (≈) assume the structure as drawn. Where two headings read alike, the source gives them in different places.

What was measured:
[1] = tested on: KRAS G12D-dependent Ba/F3 cells; experiment: Ba/F3 proliferation assay, KRAS G12D; format: cell-based; conditions: AlamarBlue
Outline: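 Cells: murine Ba/F3 transduced with mutant KRAS by retrovirus, selected with 1 μg/mL puromycin, then weaned off IL-3. Compound exposure in duplicate, followed by AlamarBlue viability staining and curve fitting.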

MKN1 cells = experiment: MKN1 CTG proliferation assay (120 h) (gastric cancer, wt amplified); format: cell-based
Outline: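 MKN1 gastric cancer cells (200–500 per well, RPMI + 10% FCS) given a logarithmic compound dose series and incubated 120 h. Viability by CellTiter-Glo luminescence as percent of DMSO controls. IC50 by four-parameter non-linear regression.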

[2] = Solubility measurement (DMSO solution method), McIlvaine buffer pH 4.5 or 6.8; format: physicochemical; conditions: DMSO stock diluted to 250 μM, 24 h shaking at ambient temperature; for solubility at 24 h: aqueous buffer, kinetic from dmso stock
Outline: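 Filtrate concentration by LC-UV, calibrated to a known-concentration reference dissolved completely in acetonitrile/water (1:1). Samples came from 250 µM final dilutions of DMSO stock in pH 4.5 or 6.8 McIlvaine buffer, shaken 24 h at ambient temperature, then filtered.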

[3] = Metabolic (microsomal) stability assay, human liver microsomes (HLM); format: in vitro ADME; conditions: predicted clearance as percent of liver blood flow, 1 μM
Outline: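 LC-MS/MS tracked parent disappearance at 0, 5, 15, 30 and 60 min in NADPH-initiated incubations with 1 mg/mL human microsomal protein and 1 μM compound at 37°C, pH 7.5. First-order fits gave intrinsic clearance, which was scaled up and reported as % QH. NADPH-free controls were also run.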

[4] = Homo sapiens, MKN-1, assay 1, CTG 120 h, read-out: MKN1 (assay 1) IC50
[5] = Homo sapiens, MKN-1, assay 2, CTG 120 h, read-out: MKN1 (assay 2) IC50
[6] = Homo sapiens, MKN-1, assay 3, CTG 120 h, read-out: MKN1 (assay 3) IC50
[7] = McIlvaine buffer pH 4.5, read-out: solubility pH 4.5
[8] = McIlvaine buffer pH 6.8, read-out: solubility pH 6.8

IC50 ([1]; Mus musculus, BaF3, 72 h) [nM] | IC50 (MKN1 cells; [4]) [nM] | IC50 (MKN1 cells; [5]) [nM] | IC50 (MKN1 cells; [6]) [nM] | solubility at 24 h [2, 7] [µg/mL] | solubility at 24 h [2, 8] [µg/mL] | HLM QH [3] [%] | Structure (SMILES) | IC50 ([1]; 72 h) [nM] | IC50 (MKN1 cells; assay 3, CTG 120 h, read-out: MKN1 (assay 3) IC50) [nM] | solubility pH 4.5 ([2]; McIlvaine buffer pH 4.5) [μg/ml] | solubility pH 6.8 ([2]; McIlvaine buffer pH 6.8) [μg/ml]
23 | 20 | 27 | 24 | 80 (≈ 133 µM) | 34 (≈ 56.7 µM) | <24 | C[C@H](Oc1cc(-n2ccc(C(N)=O)n2)nc(-c2noc3c2CCC[C@@]32CCCc3sc(N)c(C#N)c32)n1)[C@@H]1CCCN1C [II-21] |  |  |  | 
53 |  |  | 172 | 75 (≈ 119 µM) | < 1 | <24 | CCOC(=O)c1ccn(-c2cc(O[C@@H](C)[C@@H]3CCCN3C)nc(-c3noc4c3CCC[C@@]43CCCc4sc(N)c(C#N)c43)n2)n1 [II-23] |  |  |  | 
49 |  |  | 116 | 108 (≈ 183 µM) | < 1 | 44 | C[C@H](Oc1cc(-c2ccn(C)n2)nc(-c2noc3c2CCC[C@@]32CCCc3sc(N)c(C#N)c32)n1)[C@@H]1C[C@@H](F)CN1C [II-27] |  |  |  | 
12 |  |  | 39 | > 162 | 5 (≈ 7.27 µM) | 56 | COCCNC(=O)c1ccn(-c2cc(O[C@@H](C)[C@@H]3[C@@H](OC)CCN3C)nc(-c3onc4c3CCC[C@@]43CCCc4sc(N)c(C#N)c43)n2)n1 [I-55] |  |  |  | 
16 | 24 |  |  | 83 (≈ 135 µM) | 33 (≈ 53.8 µM) | <24 | CNC(=O)c1ccn(-c2cc(O[C@@H](C)[C@@H]3CCCN3C)nc(-c3noc4c3CCC[C@@]43CCCc4sc(N)c(C#N)c43)n2)n1 [II-20] |  |  |  | 
11 |  | 510 |  | > 148 | > 86 | 45 | C[C@H](Oc1cc(N2CCNC3(CC3)C2)nc(-c2onc3c2CCC[C@@]32CCCc3sc(N)c(C#N)c32)n1)[C@@H]1C[C@@H](F)CN1C [I-45] |  |  |  | 
3 |  | 335 | 152 | > 154 | 43 (≈ 68.2 µM) | 40 | CO[C@H]1CCN(C)[C@@H]1[C@H](C)Oc1cc(N2CCNC3(CC3)C2)nc(-c2onc3c2CCC[C@@]32CCCc3sc(N)c(C#N)c32)n1 [I-49] |  |  |  | 
18 |  |  | 670 | > 150 | < 1 | 40 | [2H]C([2H])([2H])N1C[C@H](F)C[C@H]1[C@H](C)Oc1cc(N2CCN(C)C3(CC3)C2)nc(-c2noc3c2CCC[C@@]32CCCc3sc(N)c(C#N)c32)n1 [II-209] |  |  |  | 
38 |  |  | 693 | > 135 | 92 (≈ 150 µM) | <24 | C[C@H](Oc1cc(-c2ccn(C3COC3)n2)nc(-c2onc3c2CCC[C@@]32CCCc3sc(N)c(C#N)c32)n1)[C@@H]1CCCN1C [I-34] |  |  |  | 
11 | 25 |  | 17 | > 128 | 94 (≈ 143 µM) | 34 | COCCNC(=O)c1ccn(-c2cc(O[C@@H](C)[C@@H]3CCCN3C)nc(-c3onc4c3CCC[C@@]43CCCc4sc(N)c(C#N)c43)n2)n1 [I-58] |  |  |  | 
13 |  |  | 26 | > 150 | 15 (≈ 21.3 µM) | <24 | C[C@H](NC(=O)c1ccn(-c2cc(O[C@@H](C)[C@@H]3CCCN3C)nc(-c3onc4c3CCC[C@@]43CCCc4sc(N)c(C#N)c43)n2)n1)c1ccccn1 [I-59] |  |  |  | 
4 |  |  | 30 | > 151 | > 133 | 42 | C[C@H](Oc1cc(N2CCNC3(COC3)C2)nc(-c2noc3c2CCC[C@@]32CCCc3sc(N)c(C#N)c32)n1)[C@@H]1CCCN1C [II-31] |  |  |  | 
9 |  |  | 75 | > 148 | > 140 | <24 | C[C@H](Oc1cc(N2CCNC3(COC3)C2)nc(-c2onc3c2CCC[C@@]32CCCc3sc(N)c(C#N)c32)n1)[C@@H]1CCCN1C [I-4] |  |  |  | 
64 |  |  | 396 | 67 (≈ 117 µM) | 1 (≈ 1.74 µM) | <24 | C[C@H](Oc1cc(-c2cnsc2)nc(-c2onc3c2CCC[C@@]32CCCc3sc(N)c(C#N)c32)n1)[C@@H]1CCCN1C [I-27] |  |  |  | 
20 |  | 279 |  | > 146 | 8 (≈ 12.6 µM) | 58 | C[C@H](Oc1cc(N2C[C@H](C)NC3(CC3)C2)nc(-c2noc3c2CCC[C@@]32CCCc3sc(N)c(C#N)c32)n1)[C@@H]1C[C@@H](F)CN1C [II-18] |  |  |  | 
20 |  |  | 460 | > 143 | > 137 | <24 | C[C@H](Oc1cc(N2CC[C@H](N3CCCCC3)C2)nc(-c2noc3c2CCC[C@@]32CCCc3sc(N)c(C#N)c32)n1)[C@@H]1CCCN1C [II-12] |  |  |  | 
250 |  |  | 1280 | 93 (≈ 160 µM) | 8 (≈ 13.8 µM) | <24 | Cc1ccc(-c2cc(O[C@@H](C)[C@@H]3CCCN3C)nc(-c3onc4c3CCC[C@@]43CCCc4sc(N)c(C#N)c43)n2)cn1 [I-28] |  |  |  | 
178 |  |  | 1730 | > 125 | 101 (≈ 192 µM) | 79 | C[C@H](Oc1cc(Cl)nc(-c2onc3c2CCC[C@@]32CCCc3sc(N)c(C#N)c32)n1)[C@@H]1CCCN1C [I-1] |  |  |  | 
8 |  |  | 19 |  |  |  | C[C@H](Oc1cc(-n2ccc(C(=O)N[C@H]3CCOC3)n2)nc(-c2onc3c2CCC[C@@]32CCCc3sc(N)c(C#N)c32)n1)[C@@H]1CCCN1C [I-57] |  |  |  | 
116 |  |  | 1260 | > 143 | > 135 | <24 | C[C@H](Oc1cc(N2C[C@@H](N(C)C)[C@@H](O)C2)nc(-c2noc3c2CCC[C@@]32CCCc3sc(N)c(C#N)c32)n1)[C@@H]1CCCN1C [II-10] |  |  |  | 
41 |  | 785 | 627 | > 139 | 95 (≈ 147 µM) | 44 | CO[C@@H]1C[C@@H]([C@H](C)Oc2cc(N3CCN(C)C4(CC4)C3)nc(-c3onc4c3CCC[C@@]43CCCc4sc(N)c(C#N)c43)n2)N(C)C1 [I-50] |  |  |  | 
24 |  |  | 17 | > 161 | 7 (≈ 10.2 µM) | 51 | CO[C@H]1CCN(C)[C@@H]1[C@H](C)Oc1cc(-n2ccc(CC(=O)NC(C)C)n2)nc(-c2onc3c2CCC[C@@]32CCCc3sc(N)c(C#N)c32)n1 [I-48] |  |  |  | 
3 |  | 451 | 245 |  |  | 48 | [2H]C([2H])([2H])N1C[C@H](F)C[C@H]1[C@H](C)Oc1cc(N2CCNC3(CC3)C2)nc(-c2noc3c2CCC[C@@]32CCCc3sc(N)c(C#N)c32)n1 [II-208] |  |  |  | 
14 |  |  | 68 | 112 (≈ 200 µM) | 104 (≈ 185 µM) | 37 | C[C@H](Oc1cc([C@@H]2CCOC2)nc(-c2onc3c2CCC[C@@]32CCCc3sc(N)c(C#N)c32)n1)[C@@H]1CCCN1C [I-22] |  |  |  | 
58 |  |  | 1480 | > 135 | > 118 |  | C[C@H](Oc1cc(N2CCNCC2)nc(-c2noc3c2CCC[C@@]32CCCc3sc(N)c(C#N)c32)n1)[C@@H]1CCCN1C [II-45] |  |  |  | 
24 |  |  |  | 68 (≈ 116 µM) | < 1 | <24 | Cc1nc(-c2cc(O[C@@H](C)[C@@H]3CCCN3C)nc(-c3onc4c3CCC[C@@]43CCCc4sc(N)c(C#N)c43)n2)cs1 [I-24] |  |  |  | 
24 |  |  |  | > 139 | > 147 | <24 | C[C@H](Oc1cc(N2CCN(C)C3(COC3)C2)nc(-c2noc3c2CCC[C@@]32CCCc3sc(N)c(C#N)c32)n1)[C@@H]1CCCN1C [II-13] |  |  |  | 
30 |  |  |  | > 157 | 98 (≈ 176 µM) | 30 | C[C@H](Oc1cc(-n2ccnc2)nc(-c2onc3c2CCC[C@@]32CCCc3sc(N)c(C#N)c32)n1)[C@@H]1CCCN1C [I-20] |  |  |  | 

Structure (SMILES) | IC50 ([1]; Mus musculus, BaF3, 72 h) [nM] | IC50 (MKN1 cells; [4]) [nM] | IC50 (MKN1 cells; [5]) [nM] | IC50 (MKN1 cells; [6]) [nM] | solubility at 24 h [2, 7] [µg/mL] | solubility at 24 h [2, 8] [µg/mL] | HLM QH [3] [%] | IC50 ([1]; 72 h) [nM] | IC50 (MKN1 cells; assay 3, CTG 120 h, read-out: MKN1 (assay 3) IC50) [nM] | solubility pH 4.5 ([2]; McIlvaine buffer pH 4.5) [μg/ml] | solubility pH 6.8 ([2]; McIlvaine buffer pH 6.8) [μg/ml]
C[C@H](Oc1cc(-c2ccn(C)n2)nc(-c2onc3c2CCC[C@@]32CCCc3sc(N)c(C#N)c32)n1)[C@@H]1CCCN1C [I-21] |  |  |  |  |  |  | 44 | 14 | 149 | 110 | 33
C[C@H](Oc1cc(N2CC3CCC(C2)N3)nc(-c2noc3c2CCC[C@@]32CCCc3sc(N)c(C#N)c32)n1)[C@@H]1CCCN1C [II-34] | 51 |  |  | 453 | > 146 | 114 (≈ 190 µM) | <24 |  |  |  | 
